Experimental data as given in ChEMBL document CHEMBL2424516, “Facile synthesis of novel quinoline derivatives as anticancer agents” (2013).
Active and inactive are the calls of the source. The calls are words filed in the database; no cut-off is given here.

Key:
MCF7 = assay: Cytotoxicity against human MCF7 cells by SRB assay; assay type: functional; details: for CC50: read-out: LC50 (the source's name)
Escherichia coli = assay: Induction of Escherichia coli DNA cleavage at 100 ug after 2 hrs by agarose gel electrophoresis
HeLa = assay: Cytotoxicity against human HeLa cells by SRB assay; assay type: functional

Row | SMILES | GI50 (MCF7) [µM] | TGI (MCF7) [µM] | CC50 (MCF7) [µM] | Activity (Escherichia coli) | GI50 (HeLa) [µM] | LC50 (concentration killing 50% of cells) (HeLa) [µM] | TGI (HeLa) [µM]
1 | COc1ccc2c(c1)cc(C1SC(NC(C)=O)=NN1C(C)=O)c1nnnn12 (centres undefined) | > 100 | > 100 | > 100 | Active | > 100 | > 100 | > 100
2 | CC(=O)NC1=NN(C(C)=O)C(c2cc3cc(C)ccc3n3nnnc23)S1 (centres undefined) | > 100 | > 100 | > 100 | Active | 81.3 | > 100 | > 100
3 | COc1ccc2cc(C3SC(NC(C)=O)=NN3C(C)=O)c3nnnn3c2c1 (centres undefined) | > 100 | > 100 | > 100 | Active | > 100 | > 100 | > 100
4 | CC(=O)NC1=NN(C(C)=O)C(c2cc3cccc(C)c3n3nnnc23)S1 (centres undefined) | 95.3 | > 100 | > 100 | Active | 85.1 | > 100 | > 100
5 | COc1cccc2cc(C3SC(NC(C)=O)=NN3C(C)=O)c3nnnn3c12 (centres undefined) | > 100 | > 100 | > 100 | Active | > 100 | > 100 | > 100
6 | COc1cc2cc(C3SC(NC(C)=O)=NN3C(C)=O)c3nnnn3c2cc1OC (centres undefined) | > 100 | > 100 | > 100 | Active | > 100 | > 100 | > 100
7 | COc1cccc2c1C(=O)c1c(O)c3c(c(O)c1C2=O)C[C@@](O)(C(=O)CO)C[C@@H]3O[C@H]1C[C@H](N)[C@H](O)[C@H](C)O1 [DOXORUBICIN] | < 0.1 | > 0.1 | > 100 | – | < 0.1 | – | > 0.1
8 | CC(=O)NC1=NN(C(C)=O)C(c2cc3cc(Br)ccc3n3nnnc23)S1 (centres undefined) | > 100 | > 100 | > 100 | Active | < 0.1 | > 100 | > 100
9 | CC(=O)NC1=NN(C(C)=O)C(c2cc3cc(Cl)ccc3n3nnnc23)S1 (centres undefined) | > 100 | > 100 | > 100 | Active | < 0.1 | > 100 | > 100
10 | CC(=O)NC1=NN(C(C)=O)C(c2cc3ccccc3n3nnnc23)S1 (centres undefined) | > 100 | > 100 | > 100 | Active | > 100 | > 100 | > 100
11 | CC(=O)NC1=NN(C(C)=O)C(c2cc3ccc(C)cc3n3nnnc23)S1 (centres undefined) | 98.9 | > 100 | > 100 | – | 83.3 | > 100 | > 100
